As usually defined, the Tmax is the time at which the peak concentration occurs. A word on the Cmax: it is the maximum level reached in the sampled fluid or tissue.

Read-outs that look alike come from different tables or passages of the source. Some results are limits rather than exact numbers.

The values that follow come from publication PMC3242598, “Phase I study of BIBF 1120 with docetaxel and prednisone in metastatic chemo-naive hormone-refractory prostate cancer patients” (British Journal of Cancer, 2011).

The nature of data set [1]: Plasma pharmacokinetics of docetaxel (HPLC-MS/MS). The settings on record: human, docetaxel 75 mg m^−2 IV + BIBF 1120 250 mg BID; for half-life: read-out: t1/2, gMean (gCV%) (converted); for Tmax / AUC(0-inf) / Cmax: iv; for Tmax: read-out: tmax, median and range; for AUC(0-inf): read-out: AUC0−∞, gMean (gCV%); for Cmax: read-out: Cmax, gMean (gCV%). The format is in vivo. The method, then: Peripheral blood was collected on days 1, 2, 3, 8, and 15 of TCs 1 and 2, and on days 2 and 15 of TCs 3–6 to perform the PK/pharmacodynamic (PD) analysis. Plasma concentrations of BIBF 1120 were determined after the first dose over the time interval 0–24 h on day 2 of TCs 1 and 2 to investigate single-dose PK characteristics of BIBF 1120 on the day after administration of single doses of docetaxel. Levels of BIBF 1120 were also determined on days 8 and 15 of TCs 1 and 2 to investigate steady-state levels.
Plasma concentrations of BIBF 1120 and docetaxel were analysed by a validated method using high-performance liquid chromatography coupled with tandem mass spectrometry (HPLC-MS/MS) in the Department of Drug Metabolism and Pharmacokinetics (Boehringer Ingelheim Pharma GmbH & Co KG, Biberach, Germany). The assay comprises sample clean-up by automated solid-phase extraction in a 96-well plate format. Chromatography was achieved on an analytical C18 reversed phase HPLC column with gradient elution. The substance was detected and quantified by HPLC-MS/MS using electrospray ionisation in the positive ion mode. Docetaxel was analysed by HPLC-MS/MS using paclitaxel as an internal standard. The assay comprises sample clean-up by liquid–liquid extraction and chromatography on an analytical C18 reversed phase HPLC column with isocratic elution. […] The lower limit of quantification for BIBF 1120 and metabolites was 0.5 ng ml^−1 plasma, using a plasma volume of 200 μl. For docetaxel, the lower limit was 2.5 ng ml^−1 plasma, using a plasma volume of 100 μl.
The calculated parameters were plasmatic peak concentrations following the first dose (Cmax), half-life time (t1/2), area under the plasma concentration–time curve (AUCt), apparent clearance after oral administration, and apparent volume of distribution during the terminal phase.

The test system of another data set is HRPC. The settings on record: cited from earlier work.

For the compound `CC(=O)O[C@@]12CO[C@@H]1C[C@H](O)[C@@]1(C)C(=O)[C@H](O)C3=C(C)[C@@H](OC(=O)[C@H](O)[C@@H](NC(=O)OC(C)(C)C)c4ccccc4)C[C@@](O)([C@@H](OC(=O)c4ccccc4)[C@H]21)C3(C)C` [docetaxel], the half-life in data set [1] (treatment cycle 2 (n=12)) is 1160 min; in data set [1] (male, treatment cycle 1 (n=12)), 1210 min. For the same compound, the Tmax in data set [1] (treatment cycle 1 (n=12)) came out at 1.02 h; in data set [1] (treatment cycle 2 (n=12)) it was 1.01 h. In addition, the AUC(0-inf) in data set [1] (male, treatment cycle 1 (n=12)) was found to be 1860 ng·h/mL; in data set [1] (male, treatment cycle 2 (n=12)), 2460 ng·h/mL. The highest concentration (Cmax) in data set [1] (male, treatment cycle 1 (n=12)) was found to be 1510 ng/mL; in data set [1] (male, treatment cycle 2 (n=12)), 1980 ng/mL. The PSA responses in the data set on HRPC (docetaxel monotherapy or with estramustine, phase III, first-line metastatic HRPC, ref Petrylak et al, 2004, Tannock et al) is reported as 45–50%. Besides, the Median survival in the data set with HRPC (docetaxel with corticosteroid in HRPC, ref Petrylak et al, 2004, Tannock et al, Berthold et al, 2008) was under 20 months.

Turning to `CCN(CC)CCNC(=O)c1c(C)[nH]c(/C=C2\C(=O)Nc3ccc(F)cc32)c1C` [sunitinib], the PSA response rates in the data set with HRPC (HRPC patients, ref Chi et al, 2008, Dror Michaelson et al, 2009, Sonpavde et al, 2010) is 3.6–12.1%.
